The nature of series [1]: Saturation solubility of Gemcitabine free base in various solvents. It counts as physicochemical. Conditions: for solubility: thermodynamic from solid. The source says: In order to select a biocompatible solvent for the development of in situ depot, we carried out saturation solubility of Gemcitabine free base in 12 different organic solvent which are safe to be used for subcutaneous administration in mice. […] However, since NMP is already used in marketed in situ depot formulations and is FDA approved, we used it as a biocompatible solvent to prepare the various polymeric solutions.

Series [2] relates to MIAPACA-2 xenograft tumors. It counts as in vivo. Conditions: s.c. depot every 3rd day, four doses, Gem 10 mg/kg, Zeb 76 mg/kg. The method, then:
All experiments were done in accordance with the guidelines of the Institutional Animal Care and Use Committee (IACUC) at St John's university. MiaPaca-2 pancreatic cancer cells were maintained in DMEM medium supplemented with 100 U/mL penicillin, 1% streptomycin, 10% fetal bovine serum (FBS), in a humidified 5% CO2 atmosphere at 37° C. After acclimation for 7 days, mice were subcutaneously (s.c.) injected in the right flank with Matrigel (BD Biosciences, San Jose, CA, USA) containing 1.5×10^6 MiaPaca-2 cells. The mice were monitored closely for tumor growth by palpation and visual examination. Palpable and measurable tumors were found beginning 5-7 days after cells were injected. Tumor volume was calculated using the equation: tumor volume=(length×width×height)/2. Once the tumors reached a size of 80-120 mm^3 mice were randomly divided into 4 groups to receive s.c. injection (N=6 in each group) of respective in situ depot formulation.
Total four doses of each formulation were given. A syringe with 27G needle was used to administer 10 ul of depot formulation. Post administration, the syringe was left in the same position for 30 sec in order to obviate the sudden leakage of formulation and to facilitate the gelling of entire volumes of formulations at 37° C. Measurements of tumor size and body weight was taken every alternate day using digital calipers. […]

Values after ≈ are worked out from the molar mass of the structure shown.

What is called solubility is the concentration that dissolves in the medium under given conditions.

In the case of `Nc1ccn([C@@H]2O[C@H](CO)[C@@H](O)C2(F)F)c(=O)n1` [Gemcitabine free base, Gemcitabine], the solubility is roughly 616 mg/mL (≈ 2340 mM) in series [1] (N,N-dimethylacetamide (DMA), organic solvent or mixture, saturation solubility in N,N Dimethylacetamide (DMA)); roughly 470 mg/mL (≈ 1790 mM) in series [1] (N-methyl pyrrolidone (NMP), organic solvent or mixture, saturation solubility in N-methyl pyrrolidone (NMP)); 3.81 ± 0.63 mg/mL (≈ 14.5 mM) in series [1] (diglyme, organic solvent or mixture, saturation solubility in Diglyme); 18.4 ± 0.34 mg/mL (≈ 69.7 mM) in series [1] (ethyl lactate, organic solvent or mixture, saturation solubility in Ethyl lactate); 104 ± 2.03 mg/mL (≈ 397 mM) in series [1] (glycerol formal, organic solvent or mixture, saturation solubility in Glycerol formal); 8.39 ± 0.4 mg/mL (≈ 31.9 mM) in series [1] (isosorbide dimethyl ether, organic solvent or mixture, saturation solubility in Isosorbide dimethyl ether). Besides, the solubility worked out at 185 ± 13.3 mg/mL (≈ 703 mM) in series [1] (polyethylene glycol 300, organic solvent or mixture, saturation solubility in Polyethylene glycol 300); 151 ± 2.89 mg/mL (≈ 572 mM) in series [1] (polyethylene glycol 400, organic solvent or mixture, saturation solubility in Polyethylene glycol 400); 160 ± 8.29 mg/mL (≈ 609 mM) in series [1] (propylene glycol, organic solvent or mixture, saturation solubility in Propylene glycol); 17.73 ± 0.008 mg/mL (≈ 67.4 mM) in series [1] (solketal, organic solvent or mixture, saturation solubility in Solketal); 129 ± 1.49 mg/mL (≈ 492 mM) in series [1] (tetraglycol/glycofurol, organic solvent or mixture, saturation solubility in Tetraglycol/Glycofurol); 221 ± 4.97 mg/mL (≈ 841 mM) in series [1] (tetrahydrofurfuryl alcohol, organic solvent or mixture, saturation solubility in Tetrahydrofurfuryl alcohol). The compound further gave a solubility in series [1] (water, saturation solubility in Water) of 21.8 ± 1.44 mg/mL (≈ 82.9 mM). Also, in series [1] (saturation solubility in N-methyl pyrrolidone (NMP)), the “Solubility of Gemcitabine free base” value was 470.70 ± 3.56 mg/mL. Also, the “Antitumor efficacy (tumor volume)” value in series [2] (FIG. 3(a)) was “decreased the tumor volume”. Besides, in series [2] (FIG. 3(c)), the Median survival entry is “around 18 days”.

The values are drawn from patent publication US20250127806A1, “INJECTABLE LIQUID PHARMACEUTICAL COMPOSITION CONTAINING GEMCITABINE AND A CYTIDINE DEAMINASE INHIBITOR” (ST. JOHN'S UNIVERSITY, priority 2021, published 2025).
